Article PMC7515950, “Physiologically based pharmacokinetic modeling to assess metabolic drug–drug interaction risks and inform the drug label for fedratinib” (Cancer Chemotherapy and Pharmacology, 2020)
Where “and” joins values, the source holds several entries; their conditions need not be identical. Identical values can stand only once.

Assays:
[1] = system: CYP3A4; assay: CYP3A induction in primary human hepatocytes (IHH0014); format: in vitro ADME
Description: The induction effect of fedratinib on CYP3A gene expression was identified using human hepatocytes in primary culture. The reported kinetic data, i.e., concentration-dependent fold induction of CYP3A mRNA levels, were fitted to estimate the Indmax and IndC50 values for fedratinib with calibration against the induction effect observed for the positive control compound rifampin [9].

[2] = Clinical single-dose PK of fedratinib in healthy subjects; format: in vivo, human; conditions: corresponding to dose-normalized AUC of 30 ng·h/(mL·mg)
Experimental: First, the developed PBPK model was verified against clinical observations in healthy subjects administered single doses of 300 mg fedratinib alone without further modifications. Second, the developed PBPK model was verified against clinical data under repeated dosing scenarios. As no repeated-dosing studies have been conducted in healthy volunteers, the model verification was conducted using the clinical PK profiles from myelofibrosis (MF) patients administered repeated doses of 300, 400, or 500 mg fedratinib once a day (QD). Third, the PBPK model of fedratinib was verified against the clinical data observed in healthy volunteers co-dosed with fedratinib (300 mg, single dose) and ketoconazole (200 mg BID).
AUC refers to AUCinf for the single dose scenarios and AUCτ for the repeated QD dose scenarios. The number of subjects (n) = 6 in TDU12620, n = 17 in INT12894, n = 10-11 in ARD11936, and n = 100 in virtual trial simulations, respectively. All model simulations listed in the table were simulated using the default “Healthy Volunteers” and “Cancer” population files provided in Simcyp® (V17R1). The prediction error is calculated using PE = (GMprediction – GMobservation)/GMobservation ×100%, where GM refers to geometric mean. SD refers to standard deviation.

[3] = biological target: T1, OATP1B1 (Homo sapiens, UniProt Q9Y6L6); assay: OATP1B1 inhibition, HEK-hOATP1B1 cells (TRE0075); format: in vitro ADME; parameters: expressed in transfected cells; host or cells: HEK^TR-hOATP1B1
T1 sequence (Q9Y6L6 1-691): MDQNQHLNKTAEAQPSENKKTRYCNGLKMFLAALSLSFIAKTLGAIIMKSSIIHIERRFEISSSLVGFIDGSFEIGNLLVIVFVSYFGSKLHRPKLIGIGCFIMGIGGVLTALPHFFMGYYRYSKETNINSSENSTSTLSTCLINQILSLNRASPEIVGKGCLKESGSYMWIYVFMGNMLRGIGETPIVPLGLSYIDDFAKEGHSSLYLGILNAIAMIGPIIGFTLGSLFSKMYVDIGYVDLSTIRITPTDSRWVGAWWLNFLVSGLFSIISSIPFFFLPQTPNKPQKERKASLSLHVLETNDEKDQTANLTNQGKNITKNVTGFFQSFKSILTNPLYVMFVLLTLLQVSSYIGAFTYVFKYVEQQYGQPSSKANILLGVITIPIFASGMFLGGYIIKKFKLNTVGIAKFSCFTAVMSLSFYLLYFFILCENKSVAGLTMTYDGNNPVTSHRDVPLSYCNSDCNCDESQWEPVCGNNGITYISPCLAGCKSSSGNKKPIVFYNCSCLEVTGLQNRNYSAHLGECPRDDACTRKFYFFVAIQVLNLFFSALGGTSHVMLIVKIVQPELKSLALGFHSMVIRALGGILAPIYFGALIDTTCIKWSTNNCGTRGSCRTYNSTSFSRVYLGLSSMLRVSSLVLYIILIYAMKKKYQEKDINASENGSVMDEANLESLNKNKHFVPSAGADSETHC
Description: The reported IC50 values were converted to Ki values using the Cheng-Prusoff equation [10]:
The transporter inhibition parameters (Ki) for fedratinib were derived from the experimentally determined IC50 values using the Cheng-Prusoff equation, i.e., Ki = IC50/(1+[S]/Km) with the substrate concentrations ([S]) reported in the experimental studies and the substrate Km values collected from literature, as summarized in Table 13.

[4] = biological target: T2, CYP2C19 (Homo sapiens, UniProt P33261); assay: CYP mechanism-based inhibition in human liver microsomes (MIH0887), CYP2C19; format: in vitro ADME; conditions: HLM
T2 construct: from tissue; host or cells: human liver microsomes
Experimental: (§1) The CYP enzyme reverse inhibition and mechanism-based inhibition (MBI) parameters were estimated in the human liver microsome (HLM) incubation in vitro studies. The reported reversible inhibition parameter (i.e., apparent Ki) values for CYP2C8, CYP2C9, and CYP2D6, along with the MBI parameters (i.e., KI or Kapp and kinact) for CYP2C19 and CYP3A4, were supplied to the PBPK DDI model (see Table 2).

[5] = PBPK parameter estimation in Simcyp (retrograde modeling, QGut, Peff, F, Fg, CLAdd); parameters: species or system human; conditions: for CLint,CYP2C19 / CLint,CYP2D6 / CLint,CYP3A4: retrograde modeling, healthy subjects
Description: Using the retrograde modeling tool provided within Simcyp®, the intrinsic enzyme clearance (CLint) values were optimized by minimizing the differences between the model-predicted and clinically observed dose-normalized AUCinf (see Supplemental Material SM2—Metabolism Parameters), with the fractions of metabolism of CYP3A4 (fmCYP3A4) and additional hepatic enzymes (fmHLM,add) refined by the parameter sensitivity analysis on accumulation ratio for repeated-dose clinical studies (see Supplemental Material SM8). The renal clearance (CLR) and additional systemic clearance (CLadd) were provided as input parameters estimated from the clinical data (see Supplemental Material SM2—Excretion Parameters). The PBPK distribution parameters (including Vss, Vsac, and Q) were directly derived from the compartmental modeling of plasma PK data obtained from healthy subjects administered 500 mg fedratinib single doses, and then provided as input parameters without further modifications (see Supplemental Material SM2—Distribution Parameters).
By default, the QGut is set to be the mean value (i.e., 6.5 L/h) in the PBPK model of fedratinib.
As CYP3A4 is the dominant form of CYP3A in the liver, all metabolic contribution from CYP3A was assigned to CYP3A4 in this PBPK model. The default “Healthy Volunteers” population was used for the retrograde modeling. […] The Fg value required for retrograde modeling was initially set as default 1 and then adjusted to ~0.8 based on model prediction. […] The clearance values derived above for fedratinib in healthy subjects were assumed to be the same for cancer patients including myelofibrosis (MF) patients and patients with refractory solid tumors.
The biliary excretion of unchanged drug accounts for 2.3% of the total intravenous dose in bile-duct cannulated (BDC) rats.

[6] = biological target: T3, CYP2C9 (Homo sapiens, UniProt P11712); assay: CYP inhibition in human liver microsomes (MIH0887), CYP2C9; format: in vitro ADME; conditions: HLM, apparent Ki, reversible inhibition
T3 construct: from tissue; host or cells: human liver microsomes
Experimental: as §1

T2 sequence (P33261 whole entry): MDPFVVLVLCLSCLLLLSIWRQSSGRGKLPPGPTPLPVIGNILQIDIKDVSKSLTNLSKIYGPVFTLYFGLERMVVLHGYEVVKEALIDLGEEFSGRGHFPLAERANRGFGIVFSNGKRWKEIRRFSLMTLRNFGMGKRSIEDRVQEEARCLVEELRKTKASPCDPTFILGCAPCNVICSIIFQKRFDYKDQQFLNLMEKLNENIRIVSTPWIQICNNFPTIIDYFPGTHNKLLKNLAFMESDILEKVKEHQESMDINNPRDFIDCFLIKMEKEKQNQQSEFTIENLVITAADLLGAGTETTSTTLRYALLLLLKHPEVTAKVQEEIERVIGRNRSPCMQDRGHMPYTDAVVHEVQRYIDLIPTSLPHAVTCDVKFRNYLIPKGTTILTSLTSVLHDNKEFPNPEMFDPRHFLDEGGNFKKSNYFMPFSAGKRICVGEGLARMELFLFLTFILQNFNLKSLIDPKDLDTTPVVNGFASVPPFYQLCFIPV
T3 sequence (P11712 whole entry): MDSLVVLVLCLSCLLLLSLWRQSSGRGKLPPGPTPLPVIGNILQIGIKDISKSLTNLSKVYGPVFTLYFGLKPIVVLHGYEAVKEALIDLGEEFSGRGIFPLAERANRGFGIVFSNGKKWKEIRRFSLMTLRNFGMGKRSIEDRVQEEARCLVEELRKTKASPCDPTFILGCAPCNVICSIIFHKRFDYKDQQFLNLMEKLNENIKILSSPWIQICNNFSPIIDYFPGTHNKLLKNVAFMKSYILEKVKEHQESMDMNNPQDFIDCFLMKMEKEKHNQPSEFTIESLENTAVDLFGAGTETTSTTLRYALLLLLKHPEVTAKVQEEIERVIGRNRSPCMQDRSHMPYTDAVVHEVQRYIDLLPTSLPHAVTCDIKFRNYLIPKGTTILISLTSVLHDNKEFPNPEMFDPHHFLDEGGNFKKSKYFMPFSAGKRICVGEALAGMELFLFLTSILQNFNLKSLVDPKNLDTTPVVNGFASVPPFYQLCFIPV

## Cc1cnc(Nc2ccc(OCCN3CCCC3)cc2)nc1Nc1cccc(S(=O)(=O)NC(C)(C)C)c1 [Fedratinib]
[1]; Simcyp input
  CYP3A4 Ind max: 78.000
[1]; human, human hepatocytes in primary culture, CYP3A mRNA, fitted, calibrated against rifampin, read-out: CYP3A4 IndC50
  EC50: 5.3 µM
[1]; maximal fold induction over vehicle, CYP3A mRNA, calibrated against rifampin
  CYP3A Indmax: 78.0
[2]
  CL/F: 33.3 L/h
[3]; from IC50 by Cheng-Prusoff, probe estradiol-17β-glucuronide
  Ki: 14.6 µM
[3]; probe estradiol-17β-glucuronide 1 μM
  IC50: 16.4 µM
[4]
  CYP2C19 KI or Kapp: 112 µM
[4]; listed as fedratinib
  CYP2C19 KI or Kapp: 112.000 µM
[4]; human, human liver microsomes
  kinact: 0.000558 s⁻¹
[5]; human, oral, read-out: CLAdd (additional systemic clearance) (converted)
  clearance: ~11.2 mL/min
[5]; oral dose, assumed from rat data
  biliary excretion percentage assumed in humans: ~ 2%
[5]
  CLint,CYP2C19: 1.25 mL/min/pmol of isoform
  CLint,CYP2D6: 0.258 mL/min/pmol of isoform
  CLint,CYP3A4: 0.610 mL/min/pmol of isoform
[5]; listed as fedratinib
  CLint,CYP2C19: 1.25 μL/min/pmol of isoform and 1.253 μL/min/pmol of isoform
  CLint,CYP2D6: 0.258 μL/min/pmol of isoform
  CLint,CYP3A4: 0.610 μL/min/pmol of isoform
[5]; updated so that predicted dose-normalized AUC agrees with observation
  CLpo used for retrograde calculation: 48 L/h
[6]
  Ki: 26.1 µM
